# In patent US20250043349A1, “DEORPHANIZING ODORS USING SINGLE CELL SEQUENCING” (PRESIDENT AND FELLOWS OF HARVARD COLLEGE, priority 2021, published 2025):
# Columns and labels:
# Olfr923 [1] = experiment: Act-Seq activation score in OSNs expressing Olfr923; format: in vivo, mouse; details: acetophenone vs 2-HA
# Experimental: (§1) Act-Seq (Wu et al., 2017) was performed following odor exposure to quantify odor-evoked responses in each OSN subtype (defined by their expressed OR) across the entire OR repertoire. Mice were habituated to a reversed light cycle for at least for 1 week before odor exposure, transferred to a new disposable cage with regular bedding/food and kept overnight in a satellite animal facility. On the experimental day, each mouse was first transferred to a new empty disposable cage during the dark cycle and habituated for 20 minutes. Empty cages were used to avoid any activation by odorants present within the environments in which the mice were housed. Odors were added to a piece of filter paper (100 μL of odorant) in a 35 mm petri dish and a cotton ball (200 μL of odorant) and placed in each cage. […]
# The remaining 169 activation genes that were also considered as HVGs often had weak loadings across multiple GEPs. […] To summarize the effects of odor activation across this set of activation genes, the TPT-expression of these activation genes were z-scored (using means and standard deviations for these genes in the control, acetophenone, and octanal datasets, identified by subsampling equal numbers of cells across all ORs expressed in at least 6 cells across 100 restarts). […] PCA was performed on the differences in z-scored activation gene expression between control and odor conditions. […]
# OSN subtypes = experiment: Persistence of transcriptional changes: 2 h odor exposure, 22 h home cage, scSeq ES scores; format: in vivo, mouse; details: two-hour exposure, measured after 24 hours
# Experimental: as §1, with “cage. After 2 hours, mice were euthanized, and dissociation was performed as described below. Odors used in this study were as follows.” for “cage.”
# Changes in ES scores were evaluated by comparing the ES scores for each OSN subtype across experimental conditions. […] The changes in ES scores and z-scored functional gene expression across conditions for each OSN subtype are described. The relative ES score change for each OSN subtype was calculated by subtracting the mean across all OSN subtypes, to normalize for any global changes across conditions that were present across the population of OSNs.
# Olfr923 [2] = details: Hu et al. 2020; Jiang et al. 2015; cited from earlier work
# [3] = test system: acetophenone-responsive OSN subtypes; experiment: Transient naris occlusion followed by Act-Seq; format: in vivo, mouse; details: 10% acetophenone, 2 hours after unplugging
# Experimental: Because odor responses in occluded OSNs cannot be examined in the chronic occlusion experiment due to permanent cautery, transient unilateral naris occlusion was performed using removable nasal plugs. Adult mice (6-12 weeks old) were anesthetized by isoflurane and removal nasal plugs were inserted into one of the two nostrils, as previously described (Galliano et al., 2021; Kass et al., 2012). The occlusion was confirmed by measuring airflow from the occluded nostril via thermocouple. After 5 days, a subset of mice was used for scSeq experiment directly (control mice) to assess the effects of naris occlusion on changes in gene expression. Under brief anesthesia by isoflurane, the remaining mice were unplugged and transferred to a new empty disposable cage containing either DPG alone or 10% acetophenone. After 2 hours, mice were subjected to scSeq. Each of the two nostrils was used separately in both control (open and plugged) and odor-exposed mice (open and unplugged).
structure (smiles),measurement,setting,value
CC(=O)c1ccccc1 [acetophenone],activation scores for OSNs expressing Olfr923,Olfr923 [1],higher for acetophenone than 2-HA
same,ES scores after transient exposure,OSN subtypes,did not change ES scores after 24 hours
same,affinity for Olfr923,Olfr923 [2],high affinity
same,activation scores of acetophenone receptor-expressing OSNs from occluded (unplugged) vs open nostrils,[3],higher activation scores
